Here are results for 25 molecules from patent US10793563B2, “GCN2 inhibitors and uses thereof” (Merck Patent GmbH, priority 2018, dated 2020).

One may read the IC50 as the concentration at which inhibition is half-maximal.

One test deals with GCN2 kinase (Homo sapiens (Human), UniProt Q9P2K8). Put plainly: GCN2 Enzyme Inhibition Assay (Transcreener ADP2 fluorescence polarization). The format is biochemical. To be noted: 280 μM ATP, 200 μM (RS)7 peptide, 4 nM GCN2, 25° C.; for Ki: Ki(app). In a few lines:
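Transcreener ADP2 fluorescence polarization detection of ADP from 4 nM GCN2 with (RS)7 substrate in 25 mM Tris-HCl pH 7.5, 50 mM NaCl, 10 mM MgCl2, 1 mM DTT. Compound pre-incubated with enzyme 10 min at 25 °C; reaction started by ATP, run 1 h at 25 °C. IC50 and Ki(app) by tight-binding fit.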

For test [1], the target named is intracellular GCN2 (phosphorylation of the GCN2 substrate eIF2α) (Homo sapiens (Human), UniProt Q9P2K8). Put plainly: GCN2 Cellular Inhibition Assay (AlphaScreen SureFire P-eIF2α Ser51, borrelidin-treated U2OS cells). It is filed as cell-based. To be noted: 10 μM borrelidin, 1 h, phosphorylated eIF2α Ser51, read-out: GCN2 Biomarker (IC50). In a few lines:
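U2OS cells adhered overnight, then given compound (top 40 μM, 4-fold serial dilutions) plus 10 μM borrelidin for 1 h at 37 °C. Lysates assayed for eIF2α phospho-Ser51 by AlphaScreen SureFire; % inhibition versus borrelidin-only wells.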
(In general: Bead proximity is the source of the signal in Alpha formats.)

Chain of intracellular GCN2 (phosphorylation of the GCN2 substrate eIF2α) (Q9P2K8 whole entry): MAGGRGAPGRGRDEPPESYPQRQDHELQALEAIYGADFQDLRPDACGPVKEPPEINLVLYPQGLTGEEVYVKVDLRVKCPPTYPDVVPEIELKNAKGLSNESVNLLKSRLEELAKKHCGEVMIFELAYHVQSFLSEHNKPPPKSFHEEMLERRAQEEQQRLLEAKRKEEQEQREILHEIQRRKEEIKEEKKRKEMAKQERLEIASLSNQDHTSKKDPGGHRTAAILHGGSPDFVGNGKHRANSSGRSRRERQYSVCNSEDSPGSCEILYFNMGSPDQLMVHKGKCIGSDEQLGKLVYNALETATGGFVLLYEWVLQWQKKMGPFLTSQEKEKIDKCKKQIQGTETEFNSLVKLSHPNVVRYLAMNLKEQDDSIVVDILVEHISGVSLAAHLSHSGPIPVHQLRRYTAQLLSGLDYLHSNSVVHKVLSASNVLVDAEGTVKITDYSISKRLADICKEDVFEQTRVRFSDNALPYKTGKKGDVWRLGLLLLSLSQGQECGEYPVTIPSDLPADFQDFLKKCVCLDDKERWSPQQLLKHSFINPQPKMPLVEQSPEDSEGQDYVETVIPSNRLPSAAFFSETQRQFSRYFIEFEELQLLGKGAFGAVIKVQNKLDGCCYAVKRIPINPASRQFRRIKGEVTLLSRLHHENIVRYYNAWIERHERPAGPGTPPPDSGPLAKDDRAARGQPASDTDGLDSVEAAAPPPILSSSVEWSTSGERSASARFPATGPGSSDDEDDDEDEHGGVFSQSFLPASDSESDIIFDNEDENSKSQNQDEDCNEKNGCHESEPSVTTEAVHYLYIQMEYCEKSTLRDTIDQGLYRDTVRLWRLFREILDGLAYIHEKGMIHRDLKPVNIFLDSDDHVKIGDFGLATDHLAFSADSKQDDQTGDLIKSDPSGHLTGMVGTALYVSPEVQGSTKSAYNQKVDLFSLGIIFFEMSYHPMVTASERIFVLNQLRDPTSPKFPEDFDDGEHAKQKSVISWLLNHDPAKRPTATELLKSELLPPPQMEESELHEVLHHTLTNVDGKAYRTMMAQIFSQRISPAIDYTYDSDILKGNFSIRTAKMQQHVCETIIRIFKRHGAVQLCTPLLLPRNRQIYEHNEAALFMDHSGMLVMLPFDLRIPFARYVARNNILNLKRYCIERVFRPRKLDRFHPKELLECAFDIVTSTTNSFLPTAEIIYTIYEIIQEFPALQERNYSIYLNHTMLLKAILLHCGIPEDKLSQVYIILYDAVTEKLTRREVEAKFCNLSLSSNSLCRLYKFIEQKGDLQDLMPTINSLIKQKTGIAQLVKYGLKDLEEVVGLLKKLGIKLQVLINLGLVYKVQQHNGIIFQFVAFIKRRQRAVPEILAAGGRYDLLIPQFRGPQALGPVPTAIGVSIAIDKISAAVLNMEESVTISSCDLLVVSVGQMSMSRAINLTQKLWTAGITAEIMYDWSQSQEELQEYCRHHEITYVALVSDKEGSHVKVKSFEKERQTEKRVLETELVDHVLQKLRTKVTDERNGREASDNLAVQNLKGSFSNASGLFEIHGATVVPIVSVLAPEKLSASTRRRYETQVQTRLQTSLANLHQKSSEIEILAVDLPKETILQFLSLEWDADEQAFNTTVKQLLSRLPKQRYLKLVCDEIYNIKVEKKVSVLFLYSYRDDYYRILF
Chain of GCN2 kinase (Q9P2K8 whole entry): as above

`C[C@@H]1CN(c2ccnc(-c3cnc4ccc(C(F)(F)F)cn34)n2)C[C@H](C)N1C(=O)c1ccn(C2CC2)n1` [I-440, (1-cyclopropyl-1H-pyrazol-3-yl)(cis-2,6-dimethyl-4-(2-(6-(trifluoromethyl)imidazo[1,2-a]pyridin-3-yl)pyrimidin-4-yl)piperazin-1-yl)methanone]: the IC50 at GCN2 kinase was 100 to 1000 nM; in test [1] it was above 5000 nM.

As for `Cc1cc(-c2cnc3ccc(Cl)cn23)nc(N2C[C@@H](C)O[C@@H](c3c[nH]nc3C)C2)n1` [I-222, (2R,6S)-4-(4-(6-chloroimidazo[1,2-a]pyridin-3-yl)-6-methylpyrimidin-2-yl)-2-methyl-6-(5-methyl-1H-pyrazol-4-yl)morpholine], the figures for the IC50 (against GCN2 kinase; in test [1]) were 10 to 100 nM and below 500 nM, respectively.

Consider `CS(=O)(=O)C1CC(N2CCN(c3ccnc(-c4cnc5ccc(C(F)(F)F)cn45)n3)C[C@H]2c2cn[nH]c2)C1` (stereo partly drawn) [I-490, 3-{4-[(R)-4-(3-Methanesulfonyl-cyclobutyl)-3-(1H-pyrazol-4-yl)-piperazin-1-yl]-pyrimidin-2-yl}-6-trifluoromethyl-imidazo[1,2-a]pyridine], for which the IC50 against GCN2 kinase was below 10 nM; in test [1], below 500 nM.

As to `NC(=O)C1CN(c2ccnc(-c3cnc4ccc(C(F)(F)F)cn34)n2)CC(F)(F)C1` (stereo not drawn) [I-202, 5,5-Difluoro-1-[2-(6-trifluoromethyl-imidazo[1,2-a]pyridin-3-yl)-pyrimidin-4-yl]-piperidine-3-carboxylic acid amide], at GCN2 kinase, the IC50 is below 10 nM and the Ki is below 10 nM. Further, the IC50 in test [1] is below 500 nM.

In the case of `Cn1cc(NC(=O)[C@H]2CCCN(c3ccnc(-c4cnc5cc(F)c(Cl)cn45)n3)C2)cn1` [I-59, (S)-1-[2-(6-Chloro-7-fluoro-imidazo[1,2-a]pyridine-3-yl)-pyrimidin-4-yl]-piperidine-3-carboxylic acid (1-methyl-1H-pyrazol-4-yl)-amide], the Ki at GCN2 kinase is 100 to 1000 nM. In addition, the IC50 in test [1] was above 5000 nM.

As for `C[C@@H]1C[C@H](N=S(C)(C)=O)CN(c2nccc(-c3cnc4cc(Cl)c(Cl)cn34)n2)C1` [I-244, (((3 S,5R)-1-(4-(6,7-dichloroimidazo[1,2-a]pyridin-3-yl)pyrimidin-2-yl)-5-methylpiperidin-3-yl)imino)dimethyl-λ6-sulfanone], the figures for the 50% inhibitory concentration (IC50) (against GCN2 kinase; in test [1]) were 10 to 100 nM and 500 to 5000 nM, respectively.

With `O=C(c1cocn1)N1CCN(c2ccnc(-c3cnc4ccc(C(F)(F)F)cn34)n2)CC1c1cn[nH]c1` (stereo not drawn) [I-443, (2-(1H-pyrazol-4-yl)-4-(2-(6-(trifluoromethyl)imidazo[1,2-a]pyridin-3-yl)pyrimidin-4-yl)piperazin-1-yl)(oxazol-4-yl)methanone], the half-inhibitory concentration (IC50) lay in the range of 10 to 100 nM against GCN2 kinase and 500 to 5000 nM in test [1].

As for `C[C@@H]1[C@H](CNS(C)(=O)=O)N(C2CC2)CCN1c1nccc(-c2cnc3ccc(C(F)(F)F)cn23)n1` [I-543, N-{(2S,3R)-1-Cyclopropyl-3-methyl-4-[4-(6-trifluoromethyl-imidazo[1,2-a]pyridin-3-yl)-pyrimidin-2-yl]-piperazin-2-ylmethyl}-methanesulfonamide], the results for the IC50 (at GCN2 kinase; in test [1]) were below 10 nM and below 500 nM, respectively.

On GCN2 kinase, `CS(=N)(=O)C[C@H]1CCCN(c2ccnc(-c3cnc4ccc(C(F)(F)F)cn34)n2)C1` (stereo partly drawn) [I-4, 3-(4-(3-((S-Methylsulfonimidoyl)methyl)piperidin-1-yl)pyrimidin-2-yl)-6-(trifluoromethyl)imidazo[1,2-a]pyridine] had a Ki of 10 to 100 nM. Besides, the IC50 in test [1] was 500 to 5000 nM.

Regarding `Cc1[nH]ncc1C1N[C@@H](C)CN(c2nccc(-c3cnc4ccc(C(F)(F)F)cn34)n2)[C@H]1C` (stereo partly drawn) [I-172, 3-(2-((2S,5S)-2,5-dimethyl-3-(5-methyl-1H-pyrazol-4-yl)piperazin-1-yl)pyrimidin-4-yl)-6-(trifluoromethyl)imidazo[1,2-a]pyridine], the values for the IC50 (at GCN2 kinase; in test [1]) were 10 to 100 nM and below 500 nM, respectively.

Molecule `CC1CN(c2nccc(-c3cnc4ccc(C(F)(F)F)cn34)n2)C(C)C(c2cn[nH]c2)N1` (single isomer, unassigned) [I-33, 3-[2-[2,5-Dimethyl-3-(1H-pyrazol-4-yl)piperazin-1-yl]pyrimidin-4-yl]-6-(trifluoromethyl)imidazo[1,2-a]pyridine] returned a Ki at GCN2 kinase of 10 to 100 nM. Besides, the IC50 in test [1] was above 5000 nM.

On to `C[C@H]1CN(c2nccc(-c3cnc4cc(F)c(Cl)cn34)n2)C[C@@H](c2cn[nH]c2)O1` [I-270, (2S,6R)-4-(4-(6-chloro-7-fluoroimidazo[1,2-a]pyridin-3-yl)pyrimidin-2-yl)-2-methyl-6-(1H-pyrazol-4-yl)morpholine], for which the IC50 on GCN2 kinase was below 10 nM; in test [1], below 500 nM.

For the molecule `C[C@@H]1C[C@H](N=S(C)(C)=O)CN(c2nccc(-c3cnc4ccc(C(F)(F)F)cn34)n2)C1` [I-169, dimethyl(((3 S,5R)-5-methyl-1-(4-(6-(trifluoromethyl)imidazo[1,2-a]pyridin-3-yl)pyrimidin-2-yl)piperidin-3-yl)imino)-λ6-sulfanone], the figures for the IC50 (against GCN2 kinase; in test [1]) were 10 to 100 nM and 500 to 5000 nM, respectively.

On to `FC(F)(F)CCN1CCN(c2ccnc(-c3cnc4ccc(C(F)(F)F)cn34)n2)CC1c1cn[nH]c1` (stereo not drawn) [I-449, 3-(4-(3-(1H-pyrazol-4-yl)-4-(3,3,3-trifluoropropyl)piperazin-1-yl)pyrimidin-2-yl)-6-(trifluoromethyl)imidazo[1,2-a]pyridine], for which the IC50 at GCN2 kinase is below 10 nM; in test [1], below 500 nM.

`C[C@H]1[C@@H](CNS(C)(=O)=O)N(C2CC2)CCN1c1nccc(-c2cnc3ccc(C(F)(F)F)cn23)n1` [I-541, N-(((2R,3 S)-1-cyclopropyl-3-methyl-4-(4-(6-(trifluoromethyl)imidazo[1,2-a]pyridin-3-yl)pyrimidin-2-yl)piperazin-2-yl)methyl)methanesulfonamide]: the concentration for half-maximal inhibition (IC50) at GCN2 kinase lay in the range of 100 to 1000 nM; in test [1], 500 to 5000 nM.

On to `NC(=O)[C@@H]1CN(c2ccnc(-c3cnc4ccc(C(F)(F)F)cn34)n2)CCN1C1CC1` [I-324, (S)-1-cyclopropyl-4-(2-(6-(trifluoromethyl)imidazzo[1,2-a]pyridin-3-yl)pyrimidin-4-yl)piperazine-2-carboxamide], for which the IC50 was 100 to 1000 nM against GCN2 kinase and above 5000 nM in test [1].

For `FC(F)(F)c1ccc2ncc(-c3ccnc(N4CCN(C5CC5)[C@H](c5cn[nH]c5)C4)n3)n2c1` [I-508, 3-{2-[(R)-4-Cyclopropyl-3-(1H-pyrazol-4-yl)-piperazin-1-yl]-pyrimidin-4-yl}-6-trifluoromethyl-imidazo[1,2-a]pyridine], the IC50 was below 10 nM at GCN2 kinase and below 500 nM in test [1].

Take `Cc1oncc1[C@@H]1CN(c2ccnc(-c3cnc4ccc(C(F)(F)F)cn34)n2)C[C@H](C)O1` [I-346, (2S,6R)-2-methyl-6-(5-methylisoxazol-4-yl)-4-(2-(6-(trifluoromethyl)imidazo[1,2-a]pyridin-3-yl)pyrimidin-4-yl)morpholine]: the IC50 was 10 to 100 nM at GCN2 kinase and below 500 nM in test [1].

For `FC(F)(F)c1ccc2ncc(-c3nccc(N4CCN(Cc5ncc[nH]5)C(c5cn[nH]c5)C4)n3)n2c1` (stereo not drawn) [I-371, 3-(4-(4-((1H-imidazol-2-yl)methyl)-3-(1H-pyrazol-4-yl)piperazin-1-yl)pyrimidin-2-yl)-6-(trifluoromethyl)imidazo[1,2-a]pyridine], the IC50 against GCN2 kinase is below 10 nM; in test [1], 500 to 5000 nM.

Turning to `CS(=O)(=O)N1CC2(CCCN(c3ccnc(-c4cnc5ccc(C(F)(F)F)cn45)n3)C2)C1` [I-448, 2-(methylsulfonyl)-6-(2-(6-(trifluoromethyl)imidazo[1,2-a]pyridin-3-yl)pyrimidin-4-yl)-2,6-diazaspiro[3.5]nonane], the IC50 against GCN2 kinase was 10 to 100 nM; in test [1] it was 500 to 5000 nM.

For `N#C[C@@H]1CN(c2ccnc(-c3cnc4ccc(C(F)(F)F)cn34)n2)CCO1` [I-232, (S)-4-(2-(6-(trifluoromethyl)imidazo[1,2-a]pyridin-3-yl)pyrimidin-4-yl)morpholine-2-carbonitrile], the figures for the IC50 (at GCN2 kinase; in test [1]) were 100 to 1000 nM and 500 to 5000 nM, respectively.

With `CC(C)(C)OC(=O)N1CC2(C1)CN(c1ccnc(-c3cnc4ccc(C(F)(F)F)cn34)n1)CCO2` [I-386, tert-butyl 8-(2-(6-(trifluoromethyl)imidazo[1,2-a]pyridin-3-yl)pyrimidin-4-yl)-5-oxa-2,8-diazaspiro[3.5]nonane-2-carboxylate], the IC50 against GCN2 kinase fell in the range of 100 to 1000 nM; in test [1] it was 500 to 5000 nM.

With `Clc1ccc2ncc(-c3nccc(N4CCNC(c5cn[nH]c5)C4)n3)n2c1` (stereo not drawn) [I-28, 6-Chloro-3-[4-[3-(1H-pyrazol-4-yl)piperazin-1-yl]pyrimidin-2-yl]imidazo[1,2-a]pyridine], the Ki at GCN2 kinase was below 10 nM. For the same molecule, the IC50 in test [1] fell in the range of 500 to 5000 nM.

As for `C[C@H]1[C@@H](c2cn[nH]c2)N(C2COC2)CCN1c1ccnc(-c2cnc3ccc(C(F)(F)F)cn23)n1` [I-361, 3-(4-((2S,3R)-2-methyl-4-(oxetan-3-yl)-3-(1H-pyrazol-4-yl)piperazin-1-yl)pyrimidin-2-yl)-6-(trifluoromethyl)imidazo[1,2-a]pyridine], the results for the IC50 (on GCN2 kinase; in test [1]) were 10 to 100 nM and 500 to 5000 nM, respectively.

`FC(F)(F)c1ccc2ncc(-c3cccc(N4CCOC(c5cn[nH]c5)C4)n3)n2c1` (stereo not drawn) [I-12, 2-(1H-Pyrazol-4-yl)-4-[6-[6-(trifluoromethyl)imidazo[1,2-a]pyridin-3-yl]-2-pyridyl]morpholine] showed a Ki on GCN2 kinase below 10 nM. In addition, the IC50 in test [1] was below 500 nM.
